Assay results reported in patent publication US9132131B2, “Use of adenosine A3 receptor agonists for treatment of neuropathic pain” (Saint Louis University, priority 2011, dated 2015).

What was measured:
[1] = system: RPMI 8226 multiple myeloma cells; test: MTT cell survival assay, RPMI 8226; assay type: cell-based, human; conditions: 48 hours
Description: Cells were cultured and assayed in DMEM (SKBR3; human breast cancer cells), L15 (SW480; human colon cancer cells) or RPMI […] (RPMI 8226; human multiple myeloma cells) supplemented with heat-denatured 10% FBS and penicillin/streptomycin at 37° C., 0% (SW480) or 5% CO2 (SKBR3 and RPMI 8226), 95% humidity. The antitumor activities of these agents were measured in cells (6.25×10^4 cells/well) cultured overnight in 24-well plates (SKBR3 and SW480; BD Biosciences) or 12 mm×7.5 mm culture tubes (RPMI 8226; BD Biosciences) in complete media. […] Two naïve control wells were included as a control for 100% survival. Cell survival was determined using a MTT (3-(4,5-dimethylthiazol-2-yl)-2,5-diphenyltetrazolium bromide) assay adapted from a previously described assay. Cells were incubated with MTT (500 μg/ml) for 75 minutes at 37° C., 0% or 5% CO2, 95% humidity, removing the media and dissolving the tetrazolium crystals in isopropanol. […] The antitumor effects of IB-MECA alone were determined as % Survivability=(A560-570 nm of chemotherapeutic vehicle+IB-MECA)/(mean A560-570 nm of the naïve control wells)×100. The LD50 of each chemotherapeutic agent+IB-MECA or its vehicle was calculated using three-parameter non-linear analysis using % Survivability=(A560-570 nm of chemotherapeutic+IB-MECA or its vehicle)/(mean A560-570 nm chemotherapeutic vehicle+vehicle of IB-MECA)×100. […]

[2] = subjects receiving the drug; cited from earlier work
[3] = system: CCI of the sciatic nerve (mechano-allodynia); test: CCI model of neuropathic pain, mechano-allodynia (von Frey PWT); assay type: in vivo, mice
Description: CCI model of neuropathic pain. CCI to the sciatic nerve of the left hind leg in mice was performed under general anaesthesia using the well-characterized Bennett model. Briefly, mice (weighing 25-30 g at the time of surgery) were anesthetized with 3% isoflurane/100% O2 inhalation and maintained on 2% isoflurane/100% O2 for the duration of surgery. The left thigh was shaved, scrubbed with Nolvasan® and a small incision (1-1.5 cm in length) was made in the middle of the lateral aspect of the left thigh to expose the sciatic nerve. The nerve was loosely ligated around the entire diameter of the nerve at three distinct sites (spaced 1 mm apart) using silk sutures (6.0). The surgical site was closed with a single muscle suture and a skin clip. Pilot studies established that under our experimental conditions peak mechano-allodynia develops by day 5-day 7 (D5-D7) following CCI. Test substances or their vehicles were given subcutaneously (s.c.), intraperitoneally (i.p.) or orally by gavage (0.1 ml) at peak mechano-allodynia (D7).
Behavioral testing. […] The plantar aspect of hindpaws were probed three times with calibrated von Frey filaments (Stoelting, mice: 0.07-2.00 grams; rats: 0.407-26 grams) according to the “up-and-down” method. […] Briefly, each rat was placed in a Plexiglas chamber (28×40×35-cm, wire mesh floor) and after its acclimation, a servo-controlled mechanical stimulus was applied to the plantar surface that exerted a progressively increasing punctate pressure up to 50 grams within 10 seconds. Mechanical threshold was assessed three times at each time point to yield a mean value, reported as PWT (grams). […] Mechano-hyperalgesia was assessed in rats by the Randall and Sellitto paw pressure test using an analgesiometer (Ugo Basile). The nociceptive threshold was defined as the force (grams) at which the rat withdrew its paw (cut off set at 250 grams).
Determining ED50 values. Dose response data were curve-fitted using the least sum of square method by a normalized 4-parameter, variable slope non-linear analysis of the % Reversal of Mechano-allodynia in CCI and % Prevention of Mechano-allodynia or Mechano-hyperalgesia in CIPN using GraphPad Prism (Release 5.03, GraphPad Software, Inc.) from which the ED50 was determined and reported with the 95% confidence interval (95% CI). In the CCI model, the % Reversal of Mechano-allodynia=(PWT1h−PWTD7)/(PWTD0−PWTD7)×100, where PWTD0=Paw Withdrawal Threshold (g) at D0, PWT1h=Paw Withdrawal Threshold (g) at 1 hour after the administration of IB-MECA, gabapentin, amitriptyline, or combinations of IB-MECA with gabapentin or amitriptyline, and PWTD7=Paw Withdrawal Threshold (grams) at D7 prior to drug administration.
Statistical Analysis. Data are expressed as mean±SD for n animals. Behavioral data were analyzed by two-way repeated measures ANOVA with Bonferroni comparisons (full time course studies) or one-way ANOVA Dunnett's comparisons (1 hour behavioral data). The dose response curves were compared to a globally fitted curve using the extra sum-of-squares F-test comparisons to determine whether the data represented distinct curves between treatments. Significant differences were defined at a P<0.05. All statistical analysis was performed using GraphPad Prism (v5.03, GraphPad Software, Inc.).

[4] = system: paclitaxel-induced neuropathic pain; test: Paclitaxel-induced neuropathic pain (mechano-allodynia, mechano-hyperalgesia); assay type: in vivo, rats; conditions: 0.2 μmol/kg/d (not shown)
[5] = system: acute nociception (tail flick latency); test: Tail flick assay for acute nociception; assay type: in vivo, mice; conditions: IB-MECA, MRS1898 0.5 μmol/kg i.p. at 30, 60, 120 minutes; morphine 35 μmol/kg s.c. positive control
Description: (§1) Tail flick and hot plate assay in mice for acute nociception. The tail flick test, which measures latency(s) of tail withdrawal from a noxious radiant heat source (Ugo Basile; model number 37360) was used to measure thermal nociceptive sensitivity in mice with baseline latencies of 3-5 seconds and a cut-off time of 15 seconds to prevent tissue injury. Tail flick latencies were taken before and at 30, 60 and 120 minutes after i.p. injection of IB-MECA, MRS1898 (0.5 μmol/kg) or its vehicle (0.1% DMSO in saline). For the hot plate test, nociceptive thresholds were determined as previously reported by our group by measuring latencies (in seconds) of mice placed in a transparent glass cylinder on a hot plate maintained at 52° C.. Responses indicative of nociception included intermittent lifting and/or licking of the hindpaws or escape behavior. Hot plate latencies were taken in mice from all groups before and after drug administration. A cut-off latency of 15 seconds was employed to prevent tissue damage.

[6] = system: acute nociception (hot plate latency); test: Hot plate assay for acute nociception; assay type: in vivo, mice; conditions: 0.5 μmol/kg
Description: as §1

| Structure (SMILES) | LD50 [1] [nM] | incidence of CIPN [2] | effect on PWT in contralateral paws ([3]; D7 after CCI, drug alone) | reversal of mechano-allodynia in ipsilateral paws ([3]; single dose D7, IB-MECA 0.2-2, CI-IB-MECA 0.6, MRS1898 0.5 μmol/kg i.p., morphine 0.11-35 s.c., gabapentin 18-584 i.p., amitriptyline 3-191 μmol/kg oral) | effect on paclitaxel-induced neuropathic pain [4] | effect on tail flick latency [5] | effect on the hot plate [6] |
| --- | --- | --- | --- | --- | --- | --- | --- |
| CC(C)C[C@H](NC(=O)[C@H](Cc1ccccc1)NC(=O)c1cnccn1)B(O)O [Bortezomib] | 27 | 36-55% |  |  |  |  |  |
| CNC(=O)[C@]12C[C@@H]1[C@@H](n1cnc3c(NCc4cccc(I)c4)nc(Cl)nc31)[C@H](O)[C@@H]2O [MRS1898, (1′R,2′R,3′S,4′R,5′S)-4-{2-chloro-6-[(3-iodophenylmethyl)amino]purin-9-yl}-1-(methylaminocarbonyl)-bicyclo[3.1.0]hexane-2,3-diol] |  |  | had no effect | reversed mechano-allodynia | completely blocked | lacked effect | had no effect |
